Columns and labels:
CheWS [1] = target: T1, CheWS (Treponema denticola, UniProt F7IUZ1); test: isothermal titration calorimetry with purified domain; assay type: binding; set-up: gene cheW-1; isolated CheRlike domain (residues 203–444)
Target sequence in this assay (F7IUZ1 entry or part of it): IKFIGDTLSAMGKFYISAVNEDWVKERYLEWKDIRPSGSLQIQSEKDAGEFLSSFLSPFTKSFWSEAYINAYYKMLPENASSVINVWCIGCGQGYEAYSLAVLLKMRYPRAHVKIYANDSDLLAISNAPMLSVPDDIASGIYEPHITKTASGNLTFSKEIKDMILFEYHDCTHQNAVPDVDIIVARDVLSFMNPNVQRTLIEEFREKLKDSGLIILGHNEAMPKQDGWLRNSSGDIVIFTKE

CheWS [2] = target: T1, CheWS; test: isothermal titration calorimetry with purified protein; assay type: binding; set-up: gene cheW-1; full-length CheWS (CheW-CheRlike), poly-His tag
Target sequence in this assay (F7IUZ1 entry or part of it): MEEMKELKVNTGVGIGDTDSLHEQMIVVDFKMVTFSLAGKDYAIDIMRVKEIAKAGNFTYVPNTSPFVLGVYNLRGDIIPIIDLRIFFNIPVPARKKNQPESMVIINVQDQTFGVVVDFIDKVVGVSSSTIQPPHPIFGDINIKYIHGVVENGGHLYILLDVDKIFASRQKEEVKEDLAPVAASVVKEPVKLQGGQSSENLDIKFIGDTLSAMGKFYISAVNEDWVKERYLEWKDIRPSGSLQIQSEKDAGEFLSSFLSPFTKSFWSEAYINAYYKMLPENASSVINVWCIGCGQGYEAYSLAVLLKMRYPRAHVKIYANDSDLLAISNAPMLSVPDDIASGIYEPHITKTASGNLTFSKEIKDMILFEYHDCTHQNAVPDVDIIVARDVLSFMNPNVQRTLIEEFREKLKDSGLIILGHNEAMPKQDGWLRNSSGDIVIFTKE

C[S+](CC[C@H](N)C(=O)[O-])C[C@H]1O[C@@H](n2cnc3c(N)ncnc32)[C@H](O)[C@@H]1O (some centres unmarked) [SAM, S-adenosylmethionine]
Kd (CheWS [1]): ~18 µM

Nc1ncnc2c1ncn2[C@@H]1O[C@H](CSCC[C@H](N)C(=O)O)[C@@H](O)[C@H]1O [SAH, S-adenosylhomocysteine]
Kd (CheWS [2]): ~17 µM

From PMC10653840, “A new class of protein sensor links spirochete pleomorphism, persistence, and chemotaxis” (mBio, 2023)
